Molecular target: T1, PmST1 (Pasteurella multocida, UniProt Q15KI8)
T1 sequence (Q15KI8 26-412): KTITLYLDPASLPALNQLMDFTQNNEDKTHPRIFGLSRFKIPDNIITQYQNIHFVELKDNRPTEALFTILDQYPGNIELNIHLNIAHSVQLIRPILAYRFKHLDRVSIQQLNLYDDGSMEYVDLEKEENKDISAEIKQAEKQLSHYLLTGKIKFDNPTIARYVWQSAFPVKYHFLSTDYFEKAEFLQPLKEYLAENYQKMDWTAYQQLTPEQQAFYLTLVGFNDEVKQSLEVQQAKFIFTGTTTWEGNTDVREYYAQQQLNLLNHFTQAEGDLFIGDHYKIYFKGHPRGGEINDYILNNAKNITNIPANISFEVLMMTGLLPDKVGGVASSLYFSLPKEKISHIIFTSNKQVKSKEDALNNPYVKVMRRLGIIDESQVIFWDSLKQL
Experiment: sialylation, conversion
Format: biochemical
Settings: poor substrate; prolonged incubation

Substance: Gb5 [4a]
- conversion: ~ 30%

Source: PMC6852662 (Organic & biomolecular chemistry, 2019)
